Data from US4221737A, “1-(Alkynyl)amino-1-(mercaptoalkyl)amino ethylenes” (Bristol-Myers Company, priority 1979, dated 1980).

How the values were obtained:
gastric acid output = test: Gastric antisecretory activity in the two hour pylorus ligated (Shay) rat; format: in vivo, rat (male Long Evans)
Source text: The pyloric ligation procedure in the rat was designed by Shay et al., Gastroenterology, 5, 53 (1945) for the study of perforating gastric ulcers; however, as the method became known, it was also employed as a means of studying rat gastric secretion, Shay et al., Gastroenterology, 26, 906 (1954), Brodie, D. A., Am. J. Dig. Dis., 11, 231 (1966). A modification of this procedure is presently used to evaluate compounds for gastric antisecretory activity.
Male Long Evans rats, 280-300 gm., are used. The animals are placed in individual cages and fasted for 24 hours with free access to water. Under ether anesthesia, the stomach is reached through a midline incision, and a cotton-thread ligature is placed around the pylorus. […] All compounds are solubilized with one equivalent of HCl and brought to the proper volume with water. The animals are returned to their cages from which the water bottles have been removed and two hours later are sacrificed with ether. The stomach is removed and the two hour gastric collection is drained into a graduated test tube for volume determination. Titratable acidity is measured by titrating a one ml. sample to pH 7.0 with 0.02 N NaOH, using an Autoburet and an electrometric pH meter (Radiometer). […] The percent inhibition of acid output is calculated as follows [formula]

[1] = system: histamine-induced gastric acid output; test: Gastric antisecretory activity in the gastric fistula dog (histamine-induced gastric acid output); format: in vivo, dog (beagle); conditions: for Percent Inhibition Acid Output: 1.5 μMole/kg iv (BL-5949: one dog at this dose)
Procedure: Thomas type [Thomas, J. E., Proc. Soc. exp. Biol. Med., 46, 260 (1941)] stainless steel cannulae are inserted into the stomachs of beagle dogs (10-12 kg.) just orad to the pyloric gland area near the greater curvature to provide a chronic gastric fistula. Animals are allowed to recover for at least two months before any testing is done. Dogs are fasted overnight (~18 hours) with water ad lib prior to each experiment. The dogs are placed in a sling and an eight inch inside needle catheter (C. R. Baird, Inc.) with a two inch 17 gauge needle is inserted into a leg vein for purposes of drug administration. Gastric secretions are collected every 15 minutes by gravity drainage from the opened cannula. […] A modification of the procedure described by Grossman and Konturek, Gastroenterology, 66, 517 (1974) was followed. […] Each 15 minute sample of gastric juice is measured to the nearest 0.5 ml. and titratable acidity against 0.02 N NaOH (endpoint pH 7.0) is measured with an Autoburet and pH meter (radiometer).The percent inhibition of acid output is calculated as described in the pylorus ligated rat procedure.

histamine H2-receptors [2] = target: T1, histamine H2-receptors (Cavia porcellus, UniProt P47747); test: Histamine H2-receptor antagonism, isolated guinea pig right atria; conditions: for Histamine ED50 after test compound / Concentration-Response Curve Displacement Factor: test compound 3 × 10^-5 M; for Histamine ED50 after test compound: 30 minute incubation, 95% limits: cimetidine 3.9-5.9 (N=8), Compound XII 3.10-5.98 (N=2), BL-5949 12.50-15.90 (N=5); for Concentration-Response Curve Displacement Factor: displacement of histamine curve to the right
T1 construct: The spontaneously beating right atrium was dissected free from other tissues; from tissue; host or cells: isolated right atrium of male Hartley guinea pigs
T1 sequence (P47747 whole entry): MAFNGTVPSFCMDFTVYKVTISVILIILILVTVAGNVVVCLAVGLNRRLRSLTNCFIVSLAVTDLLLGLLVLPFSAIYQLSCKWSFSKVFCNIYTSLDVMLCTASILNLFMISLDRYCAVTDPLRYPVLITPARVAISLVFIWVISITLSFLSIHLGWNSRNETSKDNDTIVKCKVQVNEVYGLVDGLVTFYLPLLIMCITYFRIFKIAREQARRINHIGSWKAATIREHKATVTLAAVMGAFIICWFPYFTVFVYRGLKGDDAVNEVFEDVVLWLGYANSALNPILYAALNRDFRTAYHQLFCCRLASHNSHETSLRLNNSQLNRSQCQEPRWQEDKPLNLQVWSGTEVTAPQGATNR
Procedure: Subsequent investigations by Hughes and Coret, Proc. Soc. […] Black et al., Agents and Actions, 3, 133 (1973) and Brimblecombe et al., Fed. […] The present comparative studies were carried out using a modification of the procedure reported by Reinhardt et al., Agents and Actions, 4, 217 (1974).
Male Hartley strain guinea pigs (350-450 gm.) were sacrificed by a blow on the head. The heart was excised and placed in a Petri dish of oxygenated (95% O2, 5% CO2) modified Krebs solution (g./liter: NaCl 6.6, KCl 0.35, MgSO4.7 H2 O 0.295, KH2 PO4 0.162, CaCl2 0.238, NaHCO3 2.1 and dextrose 2.09). The spontaneously beating right atrium was dissected free from other tissues and a silk thread (4-0) attached to each end. The atrium was suspended in a 20 ml. muscle chamber containing oxygenated modified Krebs solution maintained at 32° C. Atrial contractions were recorded isometrically by means of a Grass FT 0.03 force displacement transducer and recordings of contractile force and rate were made with a Beckman RP Dynograph.
A resting tension of 1 g. was applied to the atrium and it was allowed to equilibrate for 1 hour.
Concentration-response curve displacement factors were calculated as follows: [formula] […] [formula]

gastric secretion = conditions: animals and man; cited from earlier work
histamine H2-receptors [3] = target: T1, histamine H2-receptors; conditions: Black et al., Nature, 236, 385 (1972); cited from earlier work
[4] = cited from earlier work
H2-receptor = conditions: cited from earlier work
[5] = clinical; cited from earlier work
peptic ulcer disease = conditions: Gray et al., Lancet, 1 (8001), 4 (1977); cited from earlier work

SMILES	Percent Inhibition Acid Output [1] [%]	Oral absorption / oral activity (in words) [4]	Potency as H2 antagonist (in words) (H2-receptor)	Toxicity (agranulocytosis) (in words) [5]	Histamine ED50 after test compound (histamine H2-receptors [2]) [mg/L]	Concentration-Response Curve Displacement Factor (histamine H2-receptors [2])	also measured
C#CCNC(=C[N+](=O)[O-])NCCSCc1[nH]cnc1C [BL-5949, 1-Nitro-2-(2-propynylamino)-2-{2-[(4-methyl-1H-imidazol-5-yl)methylthio]ethylamino}ethylene]	88						Potency relative to Compound XII (gastric acid output; ip, rat): 3.7 times; Potency as inhibitor of gastric secretion (in words) (gastric acid output; rats): more potent than either cimetidine or Compound XII; Potency as inhibitor of gastric secretion (in words) ([1]; dogs): more potent than either cimetidine or Compound XII; Potency relative to Compound XII ([1]; iv, dog): 3.8 times; Potency as histamine H2-receptor antagonist (in words) (histamine H2-receptors [2]; isolated guinea pig atria): more potent than either cimetidine or Compound XII
CNC(=S)NCCCCc1cnc[nH]1 [Burimamide]		oral absorption is poor					Inhibition of gastric secretion (in words) (gastric secretion): inhibits gastric secretion in animals and man; Effect at histamine H2-receptors of guinea pig atria (in words) (histamine H2-receptors [3]): a competitive antagonist of these receptors
CNC(=S)NCCSCc1nc[nH]c1C [Metiamide]		orally active in man	more potent than burimamide	toxicity (agranulocytosis)			
CNC(=NC#N)NCCSCc1nc[nH]c1C [Cimetidine]	53		as effective an H2 antagonist as metiamide	without producing agranulocytosis	4.80	25.26	Effectiveness in peptic ulcer disease (in words) (peptic ulcer disease): an effective therapeutic agent in the treatment of peptic ulcer disease
CNC(=C[N+](=O)[O-])NCCSCc1nc[nH]c1C [Compound XII]					4.30	17.92	
